pIC50: −log10 of the molar value.
What was measured:
Assay type in all cases: cell-based
HBeAg = experiment: PHH HBV natural infection assay, HBeAg (alphalisa); conditions: Hepatitis B virus, Hepatocyte, 72 h, read-out: HbeAg IC50
Description: (§1) Detailed procedures regarding primary human hepatocyte (PHH) HBV natural infection assay are described as below. One tube of frozen PHH (10 million cells) is thawed in 37° C. water bath and then transferred to 20 mL of PHH thawing medium (Sigma, InVitroGRO HT Medium, Cat. S03319) with gently mixing. The cells were then centrifuged at […] for 5 min, the supernatant was discarded and the tube was refilled with 25 mL of PHH plating medium (Sigma, InVitroGRO CP Medium, Cat. 503317). The tube was shaken very gently to re-suspend all cells. 50 μl of cells were transferred to each well 384-well collagen I coated plate with appropriate liquid handling equipment, e.g. Integra VIAFLO384 or Agilent Bravo. The cells were then cultured for 24 hours in a cell incubator. For HBV infection, after PHH attachment on the culture plate, the plating medium was removed and replenished with PHH culture medium containing HBV virus. The PHH culture medium was prepared with Dulbecco's Modified Eagle Medium (DMEM)/F12 (1:1 in volume ratio) containing 10% fetal bovine serum (Gibco, Cat. 10099141), […] (Gibco, Cat. PHG03I1L), 20 ng/mL dexamethasone (Sigma, Cat. D4902-100 mg), 250 ng/mL human recombinant insulin (Gibco, Cat. 41400045) and 100 U/mL penicillin. HBV virus at 200 genome equivalent (GE) per cell with 4% PEG8000 (Sigma, Cat. P1458) containing culture medium were added to the PHH culture medium for infection. The cells were then cultured for 24 hours in cell incubator. Then the cell culture supernatant was removed. The HBV-infected PHH were cultured with sandwich culture method with PHH culture medium containing 1% DMSO and 0.25 mg/mL matrix gel for 72 hours. The supernatant was then refreshed with PHH culture medium containing different concentrations of testing compounds for two times with 72-hour interval. At the end of treatment, the supernatant was collected for viral markers measurements, including HBsAg, HBeAg, HBV DNA and cytotoxicity. HBsAg and HBeAg were detected using alphalisa method using their specific antibodies. For HBV DNA detection, HBV DNA Quantitative Fluorescence Diagnostic Kit (Sansure Biotech Inc.) was used following the manufacture's protocol. Cytotoxicity was determined using Cell Counting Kit-8 (CCK8, Dojindo Molecular Technologies, Inc.).
(§2) The compounds of the present invention were tested for their capacity to inhibit HBsAg and HBeAg as described herein.

[1] = Cytotoxicity in PHH natural infection assay (Cell Counting Kit-8); conditions: HBV-infected primary human hepatocytes, CCK8
Description: as §1

HBsAg = experiment: PHH HBV natural infection assay, HBsAg (alphalisa); conditions: Hepatitis B virus, Hepatocyte, 72 h, read-out: HBsAg IC50
Description: as §1, §2

| Compound | pIC50 (HBeAg) | CC50 at 144 h [1] [µM] | pIC50 (HBsAg) |
| --- | --- | --- | --- |
| CS(=N)(=O)Cc1ccc(C(=O)NC23CC(c4nc5ccc(Cl)cc5o4)(C2)C3)o1 (stereo not drawn) [Example 40, N-[3-(6-chloro-1,3-benzoxazol-2-yl)-1-bicyclo[1.1.1]pentanyl]-5-[(methylsulfonimidoyl)methyl]furan-2-carboxamide] | 5.39 | > 100 | 5.16 |
| O=C(NC12CC(c3nc4cc(Cl)ccc4o3)(C1)C2)c1ccc(S(=O)(=O)C2CC2)o1 [Example 5, N-[3-(5-chloro-1,3-benzoxazol-2-yl)-1-bicyclo[1.1.1]pentanyl]-5-cyclopropylsulfonyl-furan-2-carboxamide] | 6.12 | > 100 | 6.16 |
| O=C(NC12CC(c3nc4cc(Cl)ccc4o3)(C1)C2)c1ccc(Br)cc1 [Example 20, 4-bromo-N-[3-(5-chloro-1,3-benzoxazol-2-yl)-1-bicyclo[1.1.1]pentanyl]benzamide] | 5.14 | > 100 | 5.37 |
| O=C(NC12CC(c3nc4cc(Cl)cnc4o3)(C1)C2)c1ccnc(C(F)(F)F)c1 [Example 42, N-[3-(6-chlorooxazolo[5,4-b]pyridin-2-yl)-1-bicyclo[1.1.1]pentanyl]-2-(trifluoromethyl)pyridine-4-carboxamide] | 4.97 | 92 | 5.05 |
| CC1(C(=O)NC23CCC(c4nc5cc(Cl)ccc5o4)(CC2)CC3)CCS(=O)(=O)C1 (stereo not drawn) [Example 51, N-[4-(5-chloro-1,3-benzoxazol-2-yl)-1-bicyclo[2.2.2]octanyl]-3-methyl-1,1-dioxo-thiolane-3-carboxamide] | 5.31 | > 100 | 5.04 |
| CS(=O)(=O)Cc1ccc(C(=O)NC23CC(c4nc5ccc(Cl)cc5o4)(C2)C3)o1 [Example 39, N-[3-(6-chloro-1,3-benzoxazol-2-yl)-1-bicyclo[1.1.1]pentanyl]-5-(methylsulfonylmethyl)furan-2-carboxamide] | 6.12 | > 100 | 6.19 |
| CS(=O)(=O)c1ccc(C(=O)NC23CC(c4nc5cc(Cl)ccc5o4)(C2)C3)s1 [Example 9, N-[3-(5-chloro-1,3-benzoxazol-2-yl)-1-bicyclo[1.1.1]pentanyl]-5-methylsulfonyl-thiophene-2-carboxamide] | 5.27 | > 100 | 5.02 |
| CS(=N)(=O)c1ccc(C(=O)NC23CC(c4nc5cc(Cl)ccc5o4)(C2)C3)o1 (stereo not drawn) [Example 12, N-[3-(5-chloro-1,3-benzoxazol-2-yl)-1-bicyclo[1.1.1]pentanyl]-5-(methylsulfonimidoyl)furan-2-carboxamide] | 6.05 | > 100 | 5.82 |
| C[S@](=N)(=O)c1ccc(C(=O)NC23CC(c4nc5cc(Cl)ccc5o4)(C2)C3)o1 [Example 12-b, N-[3-(5-chloro-1,3-benzoxazol-2-yl)-1-bicyclo[1.1.1]pentanyl]-5-[(S)-methylsulfonimidoyl]furan-2-carboxamide] | 5.99 | > 100 | 5.66 |
| CS(=O)(=O)c1cccc(C(=O)NC23CC(c4nc5cc(Cl)ccc5o4)(C2)C3)c1 [Example 22, N-[3-(5-chloro-1,3-benzoxazol-2-yl)-1-bicyclo[1.1.1]pentanyl]-3-methylsulfonyl-benzamide] | 5.63 | > 100 | 5.52 |
| O=C(NC12CC(c3nc4cc(Cl)ccc4o3)(C1)C2)c1ccc(S(=O)(=O)CC2COC2)o1 [Example 14, N-[3-(5-chloro-1,3-benzoxazol-2-yl)-1-bicyclo[1.1.1]pentanyl]-5-(oxetan-3-ylmethylsulfonyl)furan-2-carboxamide] | 5.45 | 95.7 | 5.29 |
| CCCC(=O)NS(=O)(=O)c1ccc(C(=O)NC23CC(c4nc5cc(Cl)ccc5o4)(C2)C3)o1 [Example 31, 5-(butanoylsulfamoyl)-N-[3-(5-chloro-1,3-benzoxazol-2-yl)-1-bicyclo[1.1.1]pentanyl]furan-2-carboxamide] | 5.32 | > 100 | 5.44 |
| CS(=O)(=O)c1ccc(C(=O)NC23CC(c4nc5ccc(F)cc5o4)(C2)C3)o1 [Example 45, N-[3-(6-fluoro-1,3-benzoxazol-2-yl)-1-bicyclo[1.1.1]pentanyl]-5-methylsulfonyl-furan-2-carboxamide] | 5.35 | > 100 | 5.06 |
| N=S(=O)(CC1COC1)c1ccc(C(=O)NC23CC(c4nc5cc(Cl)ccc5o4)(C2)C3)o1 (stereo not drawn) [Example 15, N-[3-(5-chloro-1,3-benzoxazol-2-yl)-1-bicyclo[1.1.1]pentanyl]-5-(oxetan-3-ylmethylsulfonimidoyl)furan-2-carboxamide] | 5.48 | > 100 | 5.32 |
| CS(=N)(=O)Cc1ccc(C(=O)NC23CC(c4nc5cc(Cl)ccc5o4)(C2)C3)o1 (stereo not drawn) [Example 17, N-[3-(5-chloro-1,3-benzoxazol-2-yl)-1-bicyclo[1.1.1]pentanyl]-5-[(methylsulfonimidoyl)methyl]furan-2-carboxamide] | 5.66 | > 100 | 5.49 |
| C[S@@+]([O-])c1ccc(C(=O)NC23CC(c4nc5cc(Cl)ccc5o4)(C2)C3)o1 [Example 2-b, N-[3-(5-chloro-1,3-benzoxazol-2-yl)-1-bicyclo[1.1.1]pentanyl]-5-[(R)-methylsulfinyl]furan-2-carboxamide] | 5.72 | > 100 | 5.44 |
| CS(=O)(=O)Cc1ccc(C(=O)NC23CC(c4nc5cnc(Cl)cc5o4)(C2)C3)o1 [Example 43, N-[3-(6-chlorooxazolo[4,5-c]pyridin-2-yl)-1-bicyclo[1.1.1]pentanyl]-5-(methylsulfonylmethyl)furan-2-carboxamide] | 5.26 | > 10 | 5.12 |
| O=C(NC12CC(c3nc4cc(Cl)ccc4o3)(C1)C2)c1cnc(C(F)(F)F)nc1 [Example 26, N-[3-(5-chloro-1,3-benzoxazol-2-yl)-1-bicyclo[1.1.1]pentanyl]-2-(trifluoromethyl)pyrimidine-5-carboxamide] | 5.44 | 88.2 | 5.20 |
| O=C(NC12CC(c3nc4cc(Cl)ccc4o3)(C1)C2)c1ccc([S+]([O-])C2CC2)o1 (stereo not drawn) [Example 4, N-[3-(5-chloro-1,3-benzoxazol-2-yl)-1-bicyclo[1.1.1]pentanyl]-5-cyclopropylsulfinyl-furan-2-carboxamide] | 5.88 | 80 | 5.55 |
| O=C(NC12CC(c3nc4cc(Cl)ccc4o3)(C1)C2)c1cccc(Br)c1 [Example 19, 3-bromo-N-[3-(5-chloro-1,3-benzoxazol-2-yl)-1-bicyclo[1.1.1]pentanyl]benzamide] | 5.49 | > 100 | 5.58 |
| O=C(NC12CCC(c3nc4cc(Cl)ccc4o3)(CC1)CC2)C1CC2(C1)CS(=O)(=O)C2 [Example 48, N-[4-(5-chloro-1,3-benzoxazol-2-yl)-1-bicyclo[2.2.2]octanyl]-2,2-dioxo-2lambda6-thiaspiro[3.3]heptane-6-carboxamide] | 5.99 | > 100 | 5.77 |

Reference: patent publication US20230286929A1, “AROMATIC BRIDGED RING AMIDE DERIVATIVES FOR THE TREATMENT AND PROPHYLAXIS OF HEPATITIS B VIRUS INFECTION” (Hoffmann-La Roche Inc., priority 2020, published 2023)
